The source of these data is ChEMBL document CHEMBL1201862, “PubChem BioAssay data set” (2004).

Some test systems named below: 786-0; A549; BT-549; HL-60; HOP-92; Hs-578T; IGROV-1; K562; KM12; MDA-MB-231; MDA-N; MOLT-4; NCI-H522; NCI/ADR-RES; PC-3; RXF 393; SF-539; SK-MEL-28; SNB-75; UO-31.
Common to all, as to assay: growth of human tumour cells (NCI), 48 h

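Dose response: 5 concentrations. Exposure: 48 h. Format: 96-well plates. Endpoint: linear interpolation; highest concentration if not reached. At the GI50, growth is halved.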 Activity calls are given as the source filed them. Rule as the data show it: active = GI50 up to about 1.1 µM and inactive = higher.

For `C=CCOC(=O)/C(=C\c1ccc(OC)c(OC)c1)c1ccc(OC)c(OC)c1`, the GI50 in the assay on 786-0 is 71.3 µM (inactive); with A549, 61.7 µM (inactive); in the assay on BT-549 it was > 100 µM (inactive); in the assay on HL-60, 15.5 µM (inactive); in the assay on HOP-92, 21.8 µM (inactive); with Hs-578T it was 39.1 µM (inactive). Besides, the GI50 with IGROV-1 is > 100 µM (inactive); in the assay with K562, 57.8 µM (inactive); in the assay on KM12, 42.4 µM (inactive); in the assay on MDA-MB-231, > 100 µM (inactive); in the assay with MDA-N, 60.7 µM (inactive); with MOLT-4 it was 15.6 µM (inactive). The GI50 in the assay on NCI-H522 was > 100 µM (inactive); in the assay with NCI/ADR-RES, 40.6 µM (inactive); in the assay with PC-3 it was 33.1 µM (inactive); in the assay with RXF 393, 27.9 µM (inactive); with SF-539 it was > 100 µM (inactive); in the assay with SK-MEL-28 it was 33.1 µM (inactive). In addition, the GI50 with SNB-75 was 1.66 µM (inactive); in the assay on UO-31, 20.7 µM (inactive).

Turning to `[O-][s+]1c2c(Cc3ccccc3)c(Cc3ccccc3)c1CCc1cccc(c1)CC2`, the GI50 with 786-0 is 15.2 µM (inactive); in the assay with A549, 13.9 µM (inactive); with BT-549, 13.8 µM (inactive); in the assay on HL-60, 16.9 µM (inactive); in the assay with HOP-92, 13.4 µM (inactive); in the assay on Hs-578T, 18.2 µM (inactive). The GI50 was 11.2 µM (inactive) in the assay with K562; 12.2 µM (inactive) in the assay on KM12; 15.9 µM (inactive) in the assay on MDA-MB-231; 14.1 µM (inactive) in the assay on MDA-N; 14 µM (inactive) in the assay with MOLT-4; 11.3 µM (inactive) in the assay with NCI-H522. Moreover, the GI50 with NCI/ADR-RES was 14.4 µM (inactive); with PC-3, 13.3 µM (inactive); with RXF 393, 3.86 µM (inactive); with SF-539 it was 18.7 µM (inactive); with SK-MEL-28, 20.7 µM (inactive); in the assay with SNB-75, 13 µM (inactive). Also, the GI50 in the assay on UO-31 was 12.9 µM (inactive).

As for `O=[N+]([O-])/C=C/c1cc2ccccc2[nH]1`, the GI50 in the assay with 786-0 was 14.6 µM (inactive); with A549 it was 17.5 µM (inactive); in the assay with BT-549 it was 15.6 µM (inactive); in the assay with HL-60, 4.33 µM (inactive); with HOP-92, 19.8 µM (inactive); in the assay with Hs-578T it was 22.5 µM (inactive). The GI50 was 12.2 µM (inactive) in the assay with IGROV-1; 13.8 µM (inactive) in the assay on K562; 12.2 µM (inactive) in the assay with KM12; 18.2 µM (inactive) in the assay with MDA-MB-231; 3.24 µM (inactive) in the assay on MDA-N; 15.2 µM (inactive) in the assay on MOLT-4. The GI50 is 9.35 µM (inactive) with NCI-H522; 32.1 µM (inactive) in the assay with NCI/ADR-RES; 15.2 µM (inactive) in the assay with PC-3; 13.3 µM (inactive) with RXF 393; 9.84 µM (inactive) with SF-539; 25.4 µM (inactive) in the assay on SK-MEL-28. The values for the GI50 with SNB-75 and with UO-31 were 15.2 µM (inactive) and 14.8 µM (inactive), respectively.

For the compound `COc1cccc(NC(=O)CC(=O)N2N=C(C)C(/N=N/c3ccc(S(=O)(=O)CCOS(=O)(=O)O)cc3)C2=O)c1` (stereo not given), the GI50 in the assay with 786-0 is 2.74 µM (inactive); in the assay with A549, 18.9 µM (inactive); in the assay with BT-549 it was 3.35 µM (inactive); in the assay on HL-60, 1.66 µM (inactive); in the assay on HOP-92, 2.21 µM (inactive); in the assay with Hs-578T, 14 µM (inactive). The GI50 in the assay on IGROV-1 was 4.86 µM (inactive); in the assay on K562 it was 2.18 µM (inactive); in the assay with KM12, 11.6 µM (inactive); in the assay with MDA-MB-231 it was 4.63 µM (inactive); in the assay with MDA-N, 3.69 µM (inactive); in the assay with MOLT-4 it was 2.26 µM (inactive). Also, the GI50 in the assay on NCI-H522 was 0.796 µM (active); in the assay on NCI/ADR-RES it was 4.2 µM (inactive); in the assay with PC-3, 3.85 µM (inactive); with RXF 393, 4.06 µM (inactive); in the assay on SF-539 it was 12.5 µM (inactive); with SK-MEL-28, 4.09 µM (inactive). The GI50 was 3.27 µM (inactive) in the assay on SNB-75 and 12.1 µM (inactive) with UO-31.

With `Cc1cc2c(cc1Cl)Sc1nnc(C)n1S2(=O)=O`, the GI50 in the assay with 786-0 is 16.1 µM (inactive); in the assay with A549, 25.1 µM (inactive); with BT-549 it was 14.1 µM (inactive); in the assay on HL-60, 6.78 µM (inactive); in the assay with HOP-92, 2.84 µM (inactive); in the assay with Hs-578T, 28.9 µM (inactive). The GI50 in the assay with IGROV-1 is 12.3 µM (inactive); in the assay on K562, 13.8 µM (inactive); in the assay on KM12, 15.5 µM (inactive); in the assay on MDA-MB-231, 11.7 µM (inactive); in the assay with MDA-N, 13.8 µM (inactive); in the assay with MOLT-4, 14.4 µM (inactive). The GI50 with NCI-H522 is 8.69 µM (inactive); in the assay with NCI/ADR-RES, 27 µM (inactive); with PC-3 it was 15 µM (inactive); with RXF 393, 17.6 µM (inactive); in the assay with SF-539, 17.9 µM (inactive); with SK-MEL-28, 16.9 µM (inactive). For the same compound, the GI50 was 13.3 µM (inactive) in the assay on SNB-75 and 10.6 µM (inactive) in the assay with UO-31.

For `CC(C)N(CCCNc1c2ccccc2nc2cccc([N+](=O)[O-])c12)C(C)C`, the GI50 with 786-0 is < 0.0179 µM (active); in the assay with A549 it was < 0.0104 µM (active); in the assay with BT-549, < 0.0196 µM (active); with HL-60, < 0.018 µM (active); in the assay on HOP-92, 0.014 µM (active); in the assay with Hs-578T, < 0.0257 µM (active). Further, the GI50 in the assay on IGROV-1 was < 0.0385 µM (active); in the assay with K562 it was 0.0195 µM (active); with KM12 it was < 0.0188 µM (active); in the assay on MDA-MB-231 it was < 0.01 µM (active); in the assay on MDA-N it was 0.0131 µM (active); with MOLT-4 it was < 0.0134 µM (active). Besides, the GI50 in the assay on NCI-H522 was 0.0104 µM (active); with NCI/ADR-RES, 0.986 µM (active); with PC-3, < 0.0203 µM (active); in the assay with RXF 393 it was 0.0153 µM (active); with SF-539, < 0.0216 µM (active); in the assay with SK-MEL-28 it was < 0.01 µM (active). In addition, the GI50 was < 0.044 µM (active) in the assay with SNB-75 and < 0.0224 µM (active) in the assay with UO-31.

Regarding `O=[N+]([O-])c1ccc(O)c(/C=N/c2nc(-c3ccccc3)cs2)c1`, the GI50 is 34.2 µM (inactive) in the assay on 786-0; 38.5 µM (inactive) in the assay with A549; 17.1 µM (inactive) with BT-549; 34.2 µM (inactive) in the assay with HL-60; 22.9 µM (inactive) in the assay on HOP-92; 25.8 µM (inactive) in the assay on Hs-578T. Moreover, the GI50 in the assay with IGROV-1 was 24.2 µM (inactive); in the assay on K562, 2.4 µM (inactive); in the assay with KM12, 37.5 µM (inactive); in the assay on MDA-MB-231 it was 33.3 µM (inactive); in the assay on MDA-N, 27.5 µM (inactive); with MOLT-4, 17.9 µM (inactive). Besides, the GI50 is 19.2 µM (inactive) in the assay with NCI-H522; 29.7 µM (inactive) in the assay with NCI/ADR-RES; 33.3 µM (inactive) in the assay on PC-3; 20.8 µM (inactive) in the assay with RXF 393; 31.9 µM (inactive) in the assay with SK-MEL-28; 23 µM (inactive) in the assay with SNB-75. In the assay on UO-31, the GI50 is 26.4 µM (inactive).

For the compound `O=C(Cc1ccc(Cl)cc1)Nc1ccc2oc(-c3ccccc3)nc2c1`, the GI50 in the assay on 786-0 is 57 µM (inactive); with A549, > 100 µM (inactive); in the assay with BT-549, > 100 µM (inactive); with HL-60 it was > 100 µM (inactive); in the assay with HOP-92, > 100 µM (inactive); in the assay on Hs-578T, > 100 µM (inactive). The GI50 with IGROV-1, in the assay on K562, with KM12, in the assay with MDA-MB-231, with MDA-N and in the assay on MOLT-4 was > 100 µM (inactive) in each case. Moreover, the GI50 in the assay with NCI-H522 was > 100 µM (inactive); in the assay with NCI/ADR-RES, 57.8 µM (inactive); with PC-3, > 100 µM (inactive); with RXF 393, > 100 µM (inactive); in the assay with SF-539, 35.2 µM (inactive); in the assay on SK-MEL-28, > 100 µM (inactive). Further, the GI50 in the assay on SNB-75 was 24.4 µM (inactive).

With `CC1(C)CC(=O)C(=CNC(N)=S)C(=O)C1`, the GI50 with 786-0, in the assay on A549, in the assay with BT-549, in the assay with HL-60, in the assay on HOP-92 and in the assay with Hs-578T was > 100 µM (inactive) throughout. Besides, the GI50 in the assay on IGROV-1, with KM12, in the assay with MDA-MB-231, in the assay on MDA-N, in the assay on MOLT-4 and in the assay with NCI-H522 was > 100 µM (inactive) in each case. Moreover, the GI50 with NCI/ADR-RES, in the assay with PC-3, in the assay on RXF 393, with SF-539, with SK-MEL-28 and with SNB-75 was > 100 µM (inactive) each time. For the same compound, the GI50 with UO-31 is > 100 µM (inactive).

In the case of `CC(=O)CCn1c(=S)sc2ccccc21`, the GI50 with 786-0 is > 100 µM (inactive); in the assay on A549, > 100 µM (inactive); in the assay with BT-549, > 100 µM (inactive); with HL-60, 17.5 µM (inactive); in the assay on HOP-92, > 100 µM (inactive); in the assay with Hs-578T it was > 100 µM (inactive). Besides, the GI50 in the assay with IGROV-1 is 98.6 µM (inactive); in the assay on KM12 it was > 100 µM (inactive); in the assay on MDA-MB-231 it was > 100 µM (inactive); with MDA-N, > 100 µM (inactive); in the assay on MOLT-4, > 100 µM (inactive); in the assay with NCI-H522 it was 19.4 µM (inactive). Also, the GI50 in the assay on NCI/ADR-RES, in the assay with PC-3, in the assay on RXF 393, in the assay on SF-539, in the assay on SK-MEL-28 and in the assay with SNB-75 was > 100 µM (inactive) each time. Moreover, the GI50 in the assay with UO-31 was 41.3 µM (inactive).
